Measured values: US6352958B1, “Cycloimido-substituted benzofused heterocyclic herbicides” (FMC Corporation, priority 1997, dated 2002)

Experiments:
Format in all cases: in vivo
[1] = test system: common cocklebur (Xanthium strumarium L.); assay: Preemergence herbicidal activity, cocklebur; settings: Rate of Application 0.3 Kg/Ha, examined after 12-17 days
[2] = test system: common chickweed (Stellaria media); assay: Postemergence herbicidal activity, chickweed; settings: rate of application 0.3 Kg/Ha, rated after 12-17 days
[3] = test system: green foxtail (Setaria viridis); assay: Preemergence herbicidal activity, green foxtail; settings: Rate of Application 0.3 Kg/Ha, examined after 12-17 days
[4] = test system: soybean (Glycine max var. Winchester); assay: Preemergence herbicidal activity, soybean; settings: Rate of Application 0.3 Kg/Ha, examined after 12-17 days
[5] = test system: Johnsongrass (Sorghum halepense); assay: Postemergence herbicidal activity, johnsongrass; settings: rate of application 0.3 Kg/Ha, rated after 12-17 days
[6] = test system: Johnsongrass (Sorghum halepense); assay: Preemergence herbicidal activity, johnsongrass; settings: Rate of Application 0.3 Kg/Ha, examined after 12-17 days
[7] = test system: wheat (Triticum aestivum var. Lew); assay: Preemergence herbicidal activity, wheat; settings: Rate of Application 0.3 Kg/Ha, examined after 12-17 days
[8] = test system: wheat (Triticum aestivum var. Lew); assay: Postemergence herbicidal activity, wheat; settings: rate of application 0.3 Kg/Ha, rated after 12-17 days
[9] = test system: green foxtail (Setaria viridis); assay: Postemergence herbicidal activity, green foxtail; settings: rate of application 0.3 Kg/Ha, rated after 12-17 days
[10] = test system: velvetleaf (Abutilon theophrasti); assay: Postemergence herbicidal activity, velvetleaf; settings: rate of application 0.3 Kg/Ha, rated after 12-17 days
[11] = test system: common chickweed (Stellaria media); assay: Preemergence herbicidal activity, chickweed; settings: Rate of Application 0.3 Kg/Ha, examined after 12-17 days
[12] = test system: field corn (Zea mays var. Pioneer 3732); assay: Preemergence herbicidal activity, corn; settings: Rate of Application 0.3 Kg/Ha, examined after 12-17 days
[13] = test system: morningglory (Ipomea lacunosa or Ipomea hederacea); assay: Postemergence herbicidal activity, morningglory; settings: rate of application 0.3 Kg/Ha, rated after 12-17 days
[14] = test system: blackgrass (Aloepecurus myosuroides); assay: Postemergence herbicidal activity, blackgrass; settings: rate of application 0.3 Kg/Ha, rated after 12-17 days
[15] = test system: field corn (Zea mays var. Pioneer 3732); assay: Postemergence herbicidal activity, corn; settings: rate of application 0.3 Kg/Ha, rated after 12-17 days
[16] = test system: common cocklebur (Xanthium strumarium L.); assay: Postemergence herbicidal activity, cocklebur; settings: rate of application 0.3 Kg/Ha, rated after 12-17 days
[17] = test system: blackgrass (Aloepecurus myosuroides); assay: Preemergence herbicidal activity, blackgrass; settings: Rate of Application 0.3 Kg/Ha, examined after 12-17 days
[18] = test system: soybean (Glycine max var. Winchester); assay: Postemergence herbicidal activity, soybean; settings: rate of application 0.3 Kg/Ha, rated after 12-17 days
[19] = test system: velvetleaf (Abutilon theophrasti); assay: Preemergence herbicidal activity, velvetleaf; settings: Rate of Application 0.3 Kg/Ha, examined after 12-17 days
[20] = test system: morningglory (Ipomea lacunosa or Ipomea hederacea); assay: Preemergence herbicidal activity, morningglory; settings: Rate of Application 0.3 Kg/Ha, examined after 12-17 days

Row | SMILES | PREEMERGENCE HERBICIDAL ACTIVITY (% CONTROL) XANPE [1] [%] | Postemergence herbicidal activity (% control) STEME [2] [%] | PREEMERGENCE HERBICIDAL ACTIVITY (% CONTROL) SETVI [3] [%] | PREEMERGENCE HERBICIDAL ACTIVITY (% CONTROL) SOY [4] [%] | Postemergence herbicidal activity (% control) SORHA [5] [%] | PREEMERGENCE HERBICIDAL ACTIVITY (% CONTROL) SORHA [6] [%] | PREEMERGENCE HERBICIDAL ACTIVITY (% CONTROL) WHT [7] [%] | Postemergence herbicidal activity (% control) WHT [8] [%] | Postemergence herbicidal activity (% control) SETVI [9] [%] | Postemergence herbicidal activity (% control) ABUTH [10] [%] | PREEMERGENCE HERBICIDAL ACTIVITY (% CONTROL) STEME [11] [%] | PREEMERGENCE HERBICIDAL ACTIVITY (% CONTROL) CRN [12] [%] | Postemergence herbicidal activity (% control) IPOSS [13] [%] | Postemergence herbicidal activity (% control) ALOMY [14] [%] | Postemergence herbicidal activity (% control) CRN [15] [%] | Postemergence herbicidal activity (% control) XANPE [16] [%] | PREEMERGENCE HERBICIDAL ACTIVITY (% CONTROL) ALOMY [17] [%] | Postemergence herbicidal activity (% control) SOY [18] [%] | PREEMERGENCE HERBICIDAL ACTIVITY (% CONTROL) ABUTH [19] [%] | PREEMERGENCE HERBICIDAL ACTIVITY (% CONTROL) IPOSS [20] [%]
1 | CC(F)c1cc2c(Cl)cc(F)c(-n3c(=O)cc(C(F)(F)F)n(C)c3=O)c2o1 (centres unmarked) [Compound 235] | 100 | 100 | 100 | 100 | 100 | 100 | 90 | 100 | 100 | 100 | 100 | 100 | 100 | 100 | 100 | 100 | 80 | 100 | 100 | 100
2 | Cc1nc2c(-n3c(=O)cc(C(F)(F)F)n(N)c3=O)c(F)cc(Cl)c2o1 [Compound 112] | 100 | 100 | 100 | 100 | 100 | 100 | 100 | 100 | 100 | 100 | 100 | 100 | 100 | 100 | 100 | 100 | 100 | 100 | 100 | 100
3 | Cn1c(C(F)(F)F)cc(=O)n(-c2c(F)cc(Cl)c3cc(C(N)=O)oc23)c1=O [Compound 273] | 100 | 90 | 100 | 100 | 100 | 100 | 80 | 60 | 100 | 100 | 100 | 90 | 100 | 80 | 95 | 100 | 90 | 95 | 100 | 100
4 | CN(C)C(=O)c1cc2c(Cl)cc(F)c(-n3c(=O)cc(C(F)(F)F)n(C)c3=O)c2o1 [Compound 275] | 100 | 100 | 100 | 100 | 100 | 95 | 80 | 70 | 100 | 100 | 100 | 100 | 100 | 95 | 90 | 100 | 80 | 100 | 100 | 100
